Reference: US11492347B2 (ENYO PHARMA, priority 2018, dated 2022)

Key:
PRXF PC-3M = experiment: Cytotoxicity, propidium iodide based monolayer assay; type: cell-based; details: Homo sapiens, 96 h; PRXF PC-3M prostate adeno carcinoma, four days of treatment, T/C=50%; read-out: Absolute IC50
Protocol: (§1) The cytotoxicity was tested for compounds of the invention on five different cell-lines, namely LXFL 1121, MAXF 401, MMXF L-636, PRXF PC-3M and UXF 1138 which are respectively lung large cell carcinoma, breast adeno carcinoma, multiple myeloma, prostate adeno carcinoma and uterine sarcoma.
(§2) A working stock solution of the test compounds was prepared in DMSO at a concentration of 33 mM or 8.25 mM, and small aliquots were stored at −20° C. On each day of an experiment, a frozen aliquot of the working stock solution was thawed and stored at room temperature prior to and during treatment.
(§3) All liquid handling steps were performed using the Tecan Freedom EVO 200 platform. First, serial 2-fold dilutions of the 33 mM DMSO working stock solution were done in DMSO. The DMSO dilutions were then diluted 1:22 into cell culture medium in an intermediate dilution plate. Finally, 10 μl taken from the intermediate dilution plate were transferred to 140 μl/well of the final assay plate. Thus, the DMSO serial dilutions were diluted 1:330 with cell culture medium, and the DMSO concentration in the assay was 0.3% v/v.
(§4) Cell lines were routinely passaged once or twice weekly and maintained in culture for up to 20 passages. Most cell lines were grown at 37° C. in a humidified atmosphere with 5% CO2 in RPMI 1640 medium (25 mM HEPES, with L-glutamine, #FG1385, Biochrom, Berlin, Germany) supplemented with 10% (v/v) fetal calf serum (Sigma, Taufkirchen, Germany) and 0.05 mg/mL gentamicin (Life Technologies, Karlsruhe, Germany).
(§5) A modified propidium iodide (PI) based monolayer assay was used to assess the anti-cancer activity of the compounds. Briefly, cells were harvested from exponential phase cultures, counted and plated in 96 well flat-bottom microtiter plates at a cell density of 4,000 to 40,000 cells/well dependent on the cell line's growth rate. The individual seeding density for each cell line ensure exponential growth conditions over the whole or at least the bigger part of the treatment period. After a 24 h recovery period, to allow the cells to resume exponential growth, 10 μl of culture medium (6 control wells/cell line/plate) or of culture medium with test compounds were added. Compounds were applied at ten concentrations in 2-fold increments in duplicates up to 25 μM or 100 μM and treatment continued for four days. After four days of treatment, cells were next washed with 200 μl PBS to remove dead cells and debris, then 200 μl of a solution containing 7 μg/ml propidium iodide (PI) and 0.1% (v/v) Triton X-100 was added. After an incubation period of 1-2 hours at room temperature, fluorescence (FU) was measured using the Enspire Multimode Plate Reader (excitation λ=530 nm, emission k=620 nm) to quantify the amount of attached viable cells.
(§6) Drug effects were expressed in terms of the percentage of the fluorescence signal, obtained by comparison of the mean signal in the treated wells with the mean signal of the untreated controls (expressed by the test-versus-control value, T/C−value [%]):
(§7) [formula] IC values reported reflect the concentration of the test compound that achieves T/C=50%. Calculation was done by 4 parameter non-linear curve fit.

LXFL 1121 = experiment: as above; details: 96 h; LXFL 1121 lung large cell carcinoma, four days of treatment, T/C=50%; read-out: Absolute IC50
Protocol: as §1, §2, §3
Cell lines were routinely passaged once or twice weekly and maintained in culture for up to 20 passages. […]
A modified propidium iodide (PI) based monolayer assay was used to assess the anti-cancer activity of the compounds. Briefly, cells were harvested from exponential phase cultures, counted and plated in 96 well flat-bottom microtiter plates at a cell density of 4,000 to 40,000 cells/well dependent on the cell line's growth rate. […] After an incubation period of 1-2 hours at room temperature, fluorescence (FU) was measured using the Enspire Multimode Plate Reader (excitation λ=530 nm, emission k=620 nm) to quantify the amount of attached viable cells.
Drug effects were expressed in terms of the percentage of the fluorescence signal, obtained by comparison of the mean signal in the treated wells with the mean signal of the untreated controls (expressed by the test-versus-control value, T/C−value [%]): […]

MAXF 401 = experiment: as above; type: cell-based; details: Homo sapiens, MAXF401, 96 h; MAXF 401 breast adeno carcinoma, four days of treatment, T/C=50%; read-out: Absolute IC50
Protocol: as §1, §2, §3, §4, §5, §6, §7

MMXF L-363 = experiment: as above; type: cell-based; details: Homo sapiens, 96 h; MMXF L-363 multiple myeloma, four days of treatment, T/C=50%; read-out: Absolute IC50
Protocol: as §1, §2, §3, §4, §5, §6, §7

NFκB = NFκB reporter assay, TNFα stimulation of A549 NFκB-NanoLuciferase reporter cells; type: cell-based; details: Homo sapiens, 4 ng/ml TNFα, NanoGlo luciferase assay 6 hours later
Text: Compounds of the present invention have been tested for their capacity to inhibit NFκB.
The NFκB reporter construct was made by cloning 5 NFκB responsive elements upstream of a NanoLuciferase reporter gene flanked by AAVS1 genomic sequences.
NFκB Responsive element fused with NanoLuciferase and SV40 late Poly(A) signal was amplified from pNL3.2-NFκB-Nluc (Promega) using NFKB-NLUC-F and NFKB-NLUC-R primers and inserted by Infusion (TaKaRa) in AAVS1 SA-2A-puro-pA donor plasmid (Hockemeyer et al, Nat Biotechnol. 2009, 27, 851-7) digested by Sal1. pCRISPR AAVS1-T2 expressing a guide RNA (gRNA) to target human AAVS1 (T2 target sequence) was constructed by inserting AAVS1-T2A hybridized primers in pLentiCRISPR v2-blast (Sanjana et al, Nat Methods. 2014, 11, 783-4) digested by Bsmbl.
A549 cells were transfected by the plasmids and puromycine selected for 5 days (1 μg mL-1). Then clones were obtained by limiting dilution and selected to maximize TNF dependent NFκB-NanoLuciferase induction.
The reporter cells were seeded on a 96-well plate for overnight with DMEM including 10% FBS. Test compounds were added at varying concentrations. The cells then were treated with 4 ng/ml TNFα (Peprotech, ref E251) in DMEM+10% FBS. NanoGlo luciferase assay (Promega) was carried out 6 hours later. Luminescence was measured using a Spark 20M spectrofluorimeter (Tecan). Values were normalized to the luminescence measured in untreated cells.

Compound | IC50 (PRXF PC-3M) [µM] | IC50 (LXFL 1121) [µM] | IC50 (MAXF 401) [µM] | IC50 (MMXF L-363) [µM] | EC50 (NFκB) [µM]
COC1CN(c2ccc(C(=O)Nc3sc4c(c3C(=O)O)CC(C)(C)CC4(C)C)cc2)C1 [Compound #58, 2-[[4-(3-Methoxyazetidin-1-yl)benzoyl]amino]-5,5,7,7-tetramethyl-4,6-dihydrobenzothiophene-3-carboxylic acid] | 0.888 | 1.77 | – | – | –
CC1(C)CCc2sc(NC(=O)c3ccccc3)c(C(=O)O)c21 [Compound #37, 2-Benzamido-4,4-dimethyl-5,6-dihydrocyclopenta[b]thiophene-3-carboxylic acid] | 9.67 | 24.7 | 11.3 | 13.9 | –
CC1(C)Cc2c(sc(NC(=O)c3ccc(N4CCOCC4)cc3)c2C(=O)O)C(C)(C)C1 [Compound #36, 5,5,7,7-Tetramethyl-2-[(4-morpholinobenzoyl)amino]-4,6-dihydrobenzothiophene-3-carboxylic acid] | – | – | – | 1.72 | 0.2
